Results reported in ChEMBL document CHEMBL4130467, “Isolation and Structural Characterization of Echinocystic Acid Triterpenoid Saponins from the Australian Medicinal and Food Plant Acacia ligulata” (J Nat Prod, 2017).

How the values were obtained:
[1] = system: SK-MEL-28; test: Cytotoxicity against human SK-MEL-28 cells assessed as reduction in cell viability after 48 hrs by sulforhodamine B assay; type: functional, cell-based; details: SK-MEL-28, 48 h
[2] = system: HFF; test: Cytotoxicity against HFF assessed as reduction in cell viability after 48 hrs by sulforhodamine B assay; type: cell-based; details: Homo sapiens

Compound | IC50 [1] [µM] | IC50 [2] [µM]
CC(=O)N[C@H]1[C@H](O[C@H]2CC[C@]3(C)[C@H]4CC=C5[C@@H]6CC(C)(C)CC[C@]6(C(=O)O[C@@H]6OC[C@H](O)[C@H](O)[C@H]6O[C@@H]6O[C@@H](C)[C@H](O[C@@H]7O[C@@H](CO)[C@H](O)[C@H]7O)[C@@H](O[C@@H]7OC[C@@H](O)[C@H](O)[C@H]7O)[C@H]6O)[C@H](O)C[C@@]5(C)[C@]4(C)CC[C@H]3C2(C)C)O[C@H](CO)[C@@H](O[C@@H]2O[C@H](CO)[C@@H](O)[C@H](O)[C@H]2O)[C@@H]1O | 15 | 14.2
CC(=O)N[C@H]1[C@H](O[C@H]2CC[C@]3(C)[C@H]4CC=C5[C@@H]6CC(C)(C)CC[C@]6(C(=O)O[C@@H]6OC[C@H](O)[C@H](O)[C@H]6O[C@@H]6O[C@@H](C)[C@H](O[C@@H]7O[C@@H](COC(C)=O)[C@H](O)[C@H]7O)[C@@H](O[C@@H]7OC[C@@H](O)[C@H](O)[C@H]7O)[C@H]6O)[C@H](O)C[C@@]5(C)[C@]4(C)CC[C@H]3C2(C)C)O[C@H](CO)[C@@H](O[C@@H]2O[C@H](CO)[C@@H](O)[C@H](O)[C@H]2O)[C@@H]1O | 25 | 13.4
